Reference: PubChem BioAssay (NCI)
Several values for one entry are separate records, joined by “and”; a condition that tells them apart may be missing. Equal entries are not always repeated.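 Cultured in 96-well plates, cells were exposed to test compound for 48 hours across five concentrations. GI50: concentration for 50% inhibition of growth. Definition used: TGI = concentration required for complete inhibition of growth.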

What was measured:
Experiment in all cases: NCI tumour cell line growth inhibition, 48 h
SK-MEL-2 melanoma = tested on: SK-MEL-2 melanoma
HCC-2998 colon = tested on: HCC-2998 colon
SK-MEL-28 melanoma = tested on: SK-MEL-28 melanoma
LOX IMVI melanoma = tested on: LOX IMVI melanoma
RXF 393 renal = tested on: RXF 393 renal
EKVX NSCLC = tested on: EKVX NSCLC
BT-549 breast = tested on: BT-549 breast
HOP-92 NSCLC = tested on: HOP-92 NSCLC
OVCAR-5 ovarian = tested on: OVCAR-5 ovarian
PC-3 prostate = tested on: PC-3 prostate

Compound	GI50 (SK-MEL-2 melanoma)	TGI (SK-MEL-2 melanoma)	GI50 (HCC-2998 colon) [µM]	TGI (HCC-2998 colon) [µM]	GI50 (SK-MEL-28 melanoma)	TGI (SK-MEL-28 melanoma)	GI50 (LOX IMVI melanoma)	TGI (LOX IMVI melanoma)	GI50 (RXF 393 renal)	TGI (RXF 393 renal)	GI50 (EKVX NSCLC) [µM]	TGI (EKVX NSCLC) [µM]	GI50 (BT-549 breast)	TGI (BT-549 breast)	GI50 (HOP-92 NSCLC)	TGI (HOP-92 NSCLC)	GI50 (OVCAR-5 ovarian)	TGI (OVCAR-5 ovarian) [µM]	GI50 (PC-3 prostate)	TGI (PC-3 prostate)
O[C@H](CN1CC1)[C@@H](O)CN1CC1	41 µM	> 100 µM	13.8	51.3	19.5 µM	84.7 µM	2.81 µM	28.4 µM	7.35 µM	26.1 µM	15	49.6	12.6 µM	60.9 µM	7.62 µM	67.9 µM	11.2 µM	48	15.1 µM	> 100 µM
CN1N=Nc2c(C(F)(F)F)nn(-c3ccccc3)c2N(C)C1=O	> 100 µM	> 100 µM	> 100	> 100	> 100 µM	> 100 µM	> 100 µM	> 100 µM	–	> 100 µM	> 100	> 100	> 100 µM	> 100 µM	> 100 µM	> 100 µM	> 100 µM	> 100	> 100 µM	> 100 µM
CN(C)c1ccc(N=C(C#N)c2nc(N)nc(N3CCN(c4ccccc4)CC3)n2)cc1	> 50 µM	> 50 µM	26.6	> 50	12.7 µM	> 50 µM	19.6 µM	> 45.1 µM	22.1 µM	39.1 µM	> 30.1	> 50	23.6 µM	> 50 µM	49.8 µM	> 50 µM	> 50 µM	> 50	36.9 µM	> 50 µM
C[C@]12CC[C@H]3[C@@H](CCC4=C[C@@H](OC5OCC(OC6OC(CO)C(O)C(O)C6O)C(O)C5O)CC[C@@]43C=O)[C@@]1(O)CCC2C1=CC(=O)OC1 (stereo partly specified)	–	5.93 µM	–	1.38	–	9.62 µM	–	2.96 µM	–	1.2 µM	–	1.64	–	0.881 µM	–	5.13 µM	–	3.78	–	4.14 µM
N#C/C(=C\c1cccnc1)c1nc2ccccc2o1	> 100 µM	> 100 µM	> 100	> 100	> 100 µM	> 100 µM	> 100 µM	> 100 µM	> 100 µM	> 100 µM	> 100	> 100	> 100 µM	> 100 µM	40.8 µM	> 100 µM	> 100 µM	> 100	> 100 µM	> 100 µM
O=C1NC(O)CCN1C1CC(O)C(CO)O1 (stereo unspecified)	–	> 100 µM	–	> 100	–	> 100 µM	–	> 100 µM	–	> 100 µM	–	> 100	–	> 100 µM	–	> 100 µM	–	> 100	–	> 100 µM
O=S1(=O)CC(Br)C(Br)C1 (stereo unspecified)	8.74 µM	28.6 µM	14.9	28.9	3.64 µM	13.7 µM	0.628 µM	10 µM	1.11 µM	2.64 µM	18.5	49.8	5.4 µM	18.5 µM	2.35 µM	7.43 µM	15.8 µM	54.9	10.7 µM	26.3 µM
S=C(Nc1ccccc1)N1CCn2c1nsc2=Nc1ccccc1	> 100 µM	> 100 µM	> 100	> 100	> 100 µM	> 100 µM	29.1 µM	> 100 µM	> 100 µM	> 100 µM	> 100	> 100	76.7 µM	> 100 µM	92.7 µM	> 100 µM	> 100 µM	> 100	53.3 µM	> 100 µM
COc1cc(/C=C\c2cc(OC)c(OC)c(OC)c2)cc(NS(=O)(=O)c2cccc(Cl)c2)c1OC	1.38 µM	> 100 µM	0.313	60.6	1.61 µM	49 µM	0.0574 µM	> 100 µM	0.338 µM	> 100 µM	0.264	> 100	0.0338 µM	2.46 µM	0.0715 µM	> 100 µM	0.641 µM	> 100	0.0452 µM	> 100 µM
C(#Cc1ccccc1C#Cc1ccccn1)c1ccccn1	18.4 µM	36 µM	4.77	14.5	27.4 µM	84 µM	15.4 µM	30.9 µM	7.71 µM	24.4 µM	20.5	40.2	23.6 µM	45.2 µM	1.96 µM	12.2 µM	17.2 µM	40.5	13.5 µM	30.2 µM
CC(C)(F)C[C@H](N[C@@H](c1ccc(-c2ccc(S(C)(=O)=O)cc2)cc1)C(F)(F)F)C(=O)NC1(C#N)CC1	13.4 µM and 38.6 µM	55 µM and > 100 µM	> 100	> 100	49.1 µM and 36.3 µM	55 µM and > 100 µM	> 100 µM	> 100 µM	7.14 µM and 20.5 µM	18 µM and 45.2 µM	30.7	55	8.65 µM and 28.2 µM	55 µM and 82.8 µM	5.81 µM and 7.42 µM	30.3 µM and 28.4 µM	> 100 µM	> 100	36.9 µM and 27.9 µM	55 µM and > 100 µM
C#CCOc1cccc(Nc2ncc3ncn(C4CCN(C(=O)CCl)C4)c3n2)c1 (stereo unspecified)	> 62.5 µM	> 62.5 µM	> 62.5	> 62.5	> 62.5 µM	> 62.5 µM	13.2 µM	> 62.5 µM	> 62.5 µM	> 62.5 µM	> 62.5	> 62.5	18.3 µM	> 62.5 µM	> 62.5 µM	> 62.5 µM	> 62.5 µM	> 62.5	> 62.5 µM	> 62.5 µM
Cc1c(N)nc(C(CC(N)=O)NCC(N)C(N)=O)nc1C(=O)NC(C(=O)NC(C)C(O)C(C)C(=O)NC(C(=O)NCCc1nc(-c2nc(C(=O)NCCCNCCCCN)cs2)cs1)C(C)O)C(OC1OC(CO)C(O)C(O)C1OC1OC(CO)C(O)C(OC(N)=O)C1O)c1cnc[nH]1 (stereo unspecified)	–	> 10 µM	–	> 10	48 µg/mL	> 10 µM	0.324 µg/mL and 0.149 µg/mL	3.47 µg/mL and 10.3 µg/mL and > 10 µM	–	3.45 µM	–	> 10	13.7 µg/mL	–	3.38 µg/mL	–	45.6 µg/mL	> 10	15.3 µg/mL	–
O=C(O)c1ccc2cccnc2c1O	1.95 µM	7.46 µM	2.32	37.5	3.69 µM	> 100 µM	0.897 µM	28.4 µM	1.94 µM	36.4 µM	1.75	> 46	0.561 µM	> 20 µM	0.832 µM	2.74 µM	2.14 µM	> 100	–	> 100 µM
Cn1c(O)c(N=NC(N)=S)c2ccccc21	> 100 µM	> 100 µM	> 100	> 100	> 100 µM	> 100 µM	58.5 µM	> 100 µM	32 µM	> 100 µM	2.04	> 100	> 100 µM	> 100 µM	88 µM	> 100 µM	> 100 µM	> 100	79.9 µM	> 100 µM
COc1cc(/C=C/c2cc(/C=C/c3ccc(O)c(OC)c3)[nH]c(=O)n2)ccc1O	2.88 µM	6.7 µM	3.55	14.3	3.05 µM	13.1 µM	3.16 µM	> 100 µM	2.24 µM	4.93 µM	3.89	72.8	2.06 µM	8.08 µM	2.28 µM	9.24 µM	10 µM	28.4	3.2 µM	18.6 µM
O=c1[nH]cnc2nc(-c3ccc(N(CCCl)CCCl)cc3)[nH]c12	> 100 µM	> 100 µM	4.76	> 100	> 100 µM	> 100 µM	1.75 µM	> 100 µM	15.8 µM	50.7 µM	11	> 100	84.8 µM	> 100 µM	17.8 µM	> 100 µM	30.1 µM	> 100	> 100 µM	> 100 µM
CC(=O)Nc1cc2cc(NS(=O)(=O)c3cc(C(F)(F)F)cc(C(F)(F)F)c3)ccc2oc1=O	–	> 100 µM	–	> 100	–	> 100 µM	–	> 100 µM	–	0.811 µM	–	> 100	–	> 100 µM	–	> 100 µM	–	> 100	–	> 100 µM
COc1cccc2ccc3c(c12)C(=O)OC31CCc2c(C)cccc21 (stereo unspecified)	–	> 46.4 µM	–	> 46.4	–	> 46.4 µM	–	> 46.4 µM	–	44.6 µM	–	> 46.4	–	> 100 µM	–	87.9 µM	–	> 46.4	–	> 100 µM
N#CC1CCc2c(c(-c3cn[nH]c3C(F)(F)F)nc3c(F)cc4[nH]ncc4c23)C1 (stereo unspecified)	2.4 µM	6.78 µM	11	28.1	4.43 µM	30.4 µM	3.45 µM	15.3 µM	2.39 µM	7.3 µM	5.93	28.2	3.16 µM	12.9 µM	4.42 µM	26.5 µM	13.7 µM	57.7	9.19 µM	> 100 µM
N#Cc1ncc(N2C(=O)C3(CCC3)N(c3ccc(OC4CCNCC4)nc3)C2=S)cc1C(F)(F)F	15.1 µM	30.5 µM	15.6	31.2	13.8 µM	27.4 µM	11.2 µM	24 µM	12.1 µM	25.8 µM	18	46.4	12.9 µM	26 µM	1.11 µM	10.5 µM	17.3 µM	46.8	13.9 µM	28.9 µM
COc1ccc(S(=O)(=O)n2c3ccccc3n3ncc(-c4nnc(C)o4)c23)cc1	0.815 µM	82.1 µM	1.38	16.8	11.3 µM	34.8 µM	0.561 µM	26.1 µM	0.319 µM	3.97 µM	1.12	> 100	0.516 µM	20 µM	0.365 µM	57.3 µM	2.1 µM	> 100	0.478 µM	> 100 µM
Cc1cc(O)c2c(c1)C(=O)C(c1c(C)cc3c(c1O)C(=O)C1OC1C3=O)=CC2=O (stereo unspecified)	–	24.6 µM	–	17.2	–	5.53 µM	–	5.87 µM	–	3.11 µM	–	12.5	–	6.32 µM	–	2.11 µM	–	13	–	25.1 µM
Cc1nn2c(/C=C3\C(=O)Nc4ccccc43)c(C)nc2s1	27.6 µM	> 100 µM	13.7	> 100	> 100 µM	> 100 µM	97.1 µM	> 100 µM	26.2 µM	87.6 µM	74.1	> 100	> 100 µM	> 100 µM	61 µM	> 100 µM	50.7 µM	> 100	29.5 µM	> 100 µM
N#Cc1ccc2c(c1)C(=O)c1c-2n(CCCN=[N+]=[N-])c(=O)c2cc([N+](=O)[O-])ccc12	> 50 µM	> 50 µM	> 50	> 50	> 50 µM	> 50 µM	4.85 µM	> 50 µM	> 50 µM	> 50 µM	> 50	> 50	5.49 µM	> 50 µM	5.55 µM	40.1 µM	> 50 µM	> 50	> 50 µM	> 50 µM
O=C(O)c1cc2c(c3ccsc13)-c1ccccc1CC2	26.5 µM	87.5 µM	24.2	69.6	85.5 µM	> 100 µM	40.8 µM	> 100 µM	36.6 µM	> 100 µM	50.4	> 100	41.1 µM	> 100 µM	30.3 µM	> 100 µM	60.2 µM	> 100	40.9 µM	> 100 µM
